# Measurements taken from PubChem BioAssay (NCI).
#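 How tested: cells in 96-well plates exposed to compound for 48 hours at five concentrations. The concentration for full growth arrest is given as TGI.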
# Test system: A549 NSCLC
# Experiment: NCI anticancer screen, dose series, 48 h
row,SMILES,TGI
1,C=CC[C@@]1(OC(C)=O)C(=O)C(=O)OC1C1COC(C)(C)O1 (stereo partly drawn),58.1 µM
2,N#CC1=C(N)OC2=C(CCCc3ccccc32)C1c1ccc([N+](=O)[O-])cc1 (stereo not drawn),74.6 µM
3,O=C(Nc1sccc1S(=O)(=O)c1ccc(Cl)cc1)c1ccc(Cl)cc1,> 100 µM

# Test system: KM12 colon
# Experiment: NCI anticancer screen, dose series, 48 h
row,SMILES,TGI
1,C=CC[C@@]1(OC(C)=O)C(=O)C(=O)OC1C1COC(C)(C)O1 (stereo partly drawn),29.1 µM
2,N#CC1=C(N)OC2=C(CCCc3ccccc32)C1c1ccc([N+](=O)[O-])cc1 (stereo not drawn),32.5 µM
3,O=C(Nc1sccc1S(=O)(=O)c1ccc(Cl)cc1)c1ccc(Cl)cc1,> 100 µM

# Test system: HS 578T breast
# Experiment: NCI anticancer screen, dose series, 48 h
row,SMILES,TGI
1,C=CC[C@@]1(OC(C)=O)C(=O)C(=O)OC1C1COC(C)(C)O1 (stereo partly drawn),> 100 µM
2,N#CC1=C(N)OC2=C(CCCc3ccccc32)C1c1ccc([N+](=O)[O-])cc1 (stereo not drawn),> 100 µM
3,O=C(Nc1sccc1S(=O)(=O)c1ccc(Cl)cc1)c1ccc(Cl)cc1,> 100 µM

# Test system: UACC-62 melanoma
# Experiment: NCI anticancer screen, dose series, 48 h
row,SMILES,TGI
1,C=CC[C@@]1(OC(C)=O)C(=O)C(=O)OC1C1COC(C)(C)O1 (stereo partly drawn),32.5 µM
2,N#CC1=C(N)OC2=C(CCCc3ccccc32)C1c1ccc([N+](=O)[O-])cc1 (stereo not drawn),24.5 µM
3,O=C(Nc1sccc1S(=O)(=O)c1ccc(Cl)cc1)c1ccc(Cl)cc1,> 100 µM

# Test system: OVCAR-8 ovarian
# Experiment: NCI anticancer screen, dose series, 48 h
row,SMILES,TGI
1,C=CC[C@@]1(OC(C)=O)C(=O)C(=O)OC1C1COC(C)(C)O1 (stereo partly drawn),41.2 µM
2,N#CC1=C(N)OC2=C(CCCc3ccccc32)C1c1ccc([N+](=O)[O-])cc1 (stereo not drawn),39 µM
3,O=C(Nc1sccc1S(=O)(=O)c1ccc(Cl)cc1)c1ccc(Cl)cc1,> 100 µM

# Test system: NCI/ADR-RES ovarian
# Experiment: NCI anticancer screen, dose series, 48 h
row,SMILES,TGI
1,C=CC[C@@]1(OC(C)=O)C(=O)C(=O)OC1C1COC(C)(C)O1 (stereo partly drawn),71.9 µM
2,N#CC1=C(N)OC2=C(CCCc3ccccc32)C1c1ccc([N+](=O)[O-])cc1 (stereo not drawn),31.6 µM
3,O=C(Nc1sccc1S(=O)(=O)c1ccc(Cl)cc1)c1ccc(Cl)cc1,> 100 µM

# Test system: HCT-116 colon
# Experiment: NCI anticancer screen, dose series, 48 h
row,SMILES,TGI
1,C=CC[C@@]1(OC(C)=O)C(=O)C(=O)OC1C1COC(C)(C)O1 (stereo partly drawn),26.6 µM
2,N#CC1=C(N)OC2=C(CCCc3ccccc32)C1c1ccc([N+](=O)[O-])cc1 (stereo not drawn),26.1 µM
3,O=C(Nc1sccc1S(=O)(=O)c1ccc(Cl)cc1)c1ccc(Cl)cc1,> 100 µM

# Test system: EKVX NSCLC
# Experiment: NCI anticancer screen, dose series, 48 h
row,SMILES,TGI
1,C=CC[C@@]1(OC(C)=O)C(=O)C(=O)OC1C1COC(C)(C)O1 (stereo partly drawn),33 µM
2,N#CC1=C(N)OC2=C(CCCc3ccccc32)C1c1ccc([N+](=O)[O-])cc1 (stereo not drawn),43 µM
3,O=C(Nc1sccc1S(=O)(=O)c1ccc(Cl)cc1)c1ccc(Cl)cc1,> 100 µM

# Test system: SF-268 CNS
# Experiment: NCI anticancer screen, dose series, 48 h
row,SMILES,TGI
1,C=CC[C@@]1(OC(C)=O)C(=O)C(=O)OC1C1COC(C)(C)O1 (stereo partly drawn),39.4 µM
2,N#CC1=C(N)OC2=C(CCCc3ccccc32)C1c1ccc([N+](=O)[O-])cc1 (stereo not drawn),32.7 µM
3,O=C(Nc1sccc1S(=O)(=O)c1ccc(Cl)cc1)c1ccc(Cl)cc1,> 100 µM

# Test system: SNB-75 CNS
# Experiment: NCI anticancer screen, dose series, 48 h
row,SMILES,TGI
1,C=CC[C@@]1(OC(C)=O)C(=O)C(=O)OC1C1COC(C)(C)O1 (stereo partly drawn),78.7 µM
2,N#CC1=C(N)OC2=C(CCCc3ccccc32)C1c1ccc([N+](=O)[O-])cc1 (stereo not drawn),> 100 µM
3,O=C(Nc1sccc1S(=O)(=O)c1ccc(Cl)cc1)c1ccc(Cl)cc1,> 100 µM

# Test system: SK-OV-3 ovarian
# Experiment: NCI anticancer screen, dose series, 48 h
row,SMILES,TGI
1,C=CC[C@@]1(OC(C)=O)C(=O)C(=O)OC1C1COC(C)(C)O1 (stereo partly drawn),> 100 µM
2,N#CC1=C(N)OC2=C(CCCc3ccccc32)C1c1ccc([N+](=O)[O-])cc1 (stereo not drawn),92.1 µM
3,O=C(Nc1sccc1S(=O)(=O)c1ccc(Cl)cc1)c1ccc(Cl)cc1,> 100 µM

# Test system: 786-0 renal
# Experiment: NCI anticancer screen, dose series, 48 h
row,SMILES,TGI
1,C=CC[C@@]1(OC(C)=O)C(=O)C(=O)OC1C1COC(C)(C)O1 (stereo partly drawn),24.6 µM
2,N#CC1=C(N)OC2=C(CCCc3ccccc32)C1c1ccc([N+](=O)[O-])cc1 (stereo not drawn),42.6 µM
3,O=C(Nc1sccc1S(=O)(=O)c1ccc(Cl)cc1)c1ccc(Cl)cc1,> 100 µM

# Test system: HOP-92 NSCLC
# Experiment: NCI anticancer screen, dose series, 48 h
row,SMILES,TGI
1,C=CC[C@@]1(OC(C)=O)C(=O)C(=O)OC1C1COC(C)(C)O1 (stereo partly drawn),30.4 µM
2,N#CC1=C(N)OC2=C(CCCc3ccccc32)C1c1ccc([N+](=O)[O-])cc1 (stereo not drawn),57.9 µM
3,O=C(Nc1sccc1S(=O)(=O)c1ccc(Cl)cc1)c1ccc(Cl)cc1,> 100 µM

# Test system: OVCAR-4 ovarian
# Experiment: NCI anticancer screen, dose series, 48 h
row,SMILES,TGI
1,C=CC[C@@]1(OC(C)=O)C(=O)C(=O)OC1C1COC(C)(C)O1 (stereo partly drawn),38.7 µM
2,N#CC1=C(N)OC2=C(CCCc3ccccc32)C1c1ccc([N+](=O)[O-])cc1 (stereo not drawn),75.4 µM
3,O=C(Nc1sccc1S(=O)(=O)c1ccc(Cl)cc1)c1ccc(Cl)cc1,> 100 µM

# Test system: SW-620 colon
# Experiment: NCI anticancer screen, dose series, 48 h
row,SMILES,TGI
1,C=CC[C@@]1(OC(C)=O)C(=O)C(=O)OC1C1COC(C)(C)O1 (stereo partly drawn),26.6 µM
2,N#CC1=C(N)OC2=C(CCCc3ccccc32)C1c1ccc([N+](=O)[O-])cc1 (stereo not drawn),35.5 µM
3,O=C(Nc1sccc1S(=O)(=O)c1ccc(Cl)cc1)c1ccc(Cl)cc1,> 100 µM

# Test system: K-562 leukemia
# Experiment: NCI anticancer screen, dose series, 48 h
row,SMILES,TGI
1,C=CC[C@@]1(OC(C)=O)C(=O)C(=O)OC1C1COC(C)(C)O1 (stereo partly drawn),32.2 µM
2,N#CC1=C(N)OC2=C(CCCc3ccccc32)C1c1ccc([N+](=O)[O-])cc1 (stereo not drawn),11.5 µM
3,O=C(Nc1sccc1S(=O)(=O)c1ccc(Cl)cc1)c1ccc(Cl)cc1,> 100 µM

# Test system: RXF 393 renal
# Experiment: NCI anticancer screen, dose series, 48 h
row,SMILES,TGI
1,C=CC[C@@]1(OC(C)=O)C(=O)C(=O)OC1C1COC(C)(C)O1 (stereo partly drawn),40.1 µM
2,N#CC1=C(N)OC2=C(CCCc3ccccc32)C1c1ccc([N+](=O)[O-])cc1 (stereo not drawn),27.6 µM
3,O=C(Nc1sccc1S(=O)(=O)c1ccc(Cl)cc1)c1ccc(Cl)cc1,> 100 µM

# Test system: NCI-H23 lung
# Experiment: NCI anticancer screen, dose series, 48 h
row,SMILES,TGI
1,C=CC[C@@]1(OC(C)=O)C(=O)C(=O)OC1C1COC(C)(C)O1 (stereo partly drawn),40.5 µM
2,N#CC1=C(N)OC2=C(CCCc3ccccc32)C1c1ccc([N+](=O)[O-])cc1 (stereo not drawn),34.6 µM
3,O=C(Nc1sccc1S(=O)(=O)c1ccc(Cl)cc1)c1ccc(Cl)cc1,> 100 µM

# Test system: CCRF-CEM leukemia
# Experiment: NCI anticancer screen, dose series, 48 h
row,SMILES,TGI
1,C=CC[C@@]1(OC(C)=O)C(=O)C(=O)OC1C1COC(C)(C)O1 (stereo partly drawn),22.7 µM
2,N#CC1=C(N)OC2=C(CCCc3ccccc32)C1c1ccc([N+](=O)[O-])cc1 (stereo not drawn),23.2 µM
3,O=C(Nc1sccc1S(=O)(=O)c1ccc(Cl)cc1)c1ccc(Cl)cc1,> 100 µM

# Test system: HCC-2998 colon
# Experiment: NCI anticancer screen, dose series, 48 h
row,SMILES,TGI
1,C=CC[C@@]1(OC(C)=O)C(=O)C(=O)OC1C1COC(C)(C)O1 (stereo partly drawn),40.7 µM
2,N#CC1=C(N)OC2=C(CCCc3ccccc32)C1c1ccc([N+](=O)[O-])cc1 (stereo not drawn),26.8 µM
3,O=C(Nc1sccc1S(=O)(=O)c1ccc(Cl)cc1)c1ccc(Cl)cc1,> 100 µM

# Test system: UACC-257 melanoma
# Experiment: NCI anticancer screen, dose series, 48 h
row,SMILES,TGI
1,C=CC[C@@]1(OC(C)=O)C(=O)C(=O)OC1C1COC(C)(C)O1 (stereo partly drawn),31.9 µM
2,N#CC1=C(N)OC2=C(CCCc3ccccc32)C1c1ccc([N+](=O)[O-])cc1 (stereo not drawn),32.4 µM
3,O=C(Nc1sccc1S(=O)(=O)c1ccc(Cl)cc1)c1ccc(Cl)cc1,> 100 µM

# Test system: HCT-15 colon
# Experiment: NCI anticancer screen, dose series, 48 h
row,SMILES,TGI
1,C=CC[C@@]1(OC(C)=O)C(=O)C(=O)OC1C1COC(C)(C)O1 (stereo partly drawn),29 µM
2,N#CC1=C(N)OC2=C(CCCc3ccccc32)C1c1ccc([N+](=O)[O-])cc1 (stereo not drawn),30.7 µM
3,O=C(Nc1sccc1S(=O)(=O)c1ccc(Cl)cc1)c1ccc(Cl)cc1,> 100 µM

# Test system: SR leukemia
# Experiment: NCI anticancer screen, dose series, 48 h
row,SMILES,TGI
1,C=CC[C@@]1(OC(C)=O)C(=O)C(=O)OC1C1COC(C)(C)O1 (stereo partly drawn),37.9 µM
2,N#CC1=C(N)OC2=C(CCCc3ccccc32)C1c1ccc([N+](=O)[O-])cc1 (stereo not drawn),37.4 µM
3,O=C(Nc1sccc1S(=O)(=O)c1ccc(Cl)cc1)c1ccc(Cl)cc1,> 100 µM

# Test system: SN12C renal
# Experiment: NCI anticancer screen, dose series, 48 h
row,SMILES,TGI
1,C=CC[C@@]1(OC(C)=O)C(=O)C(=O)OC1C1COC(C)(C)O1 (stereo partly drawn),32.5 µM
2,N#CC1=C(N)OC2=C(CCCc3ccccc32)C1c1ccc([N+](=O)[O-])cc1 (stereo not drawn),29 µM
3,O=C(Nc1sccc1S(=O)(=O)c1ccc(Cl)cc1)c1ccc(Cl)cc1,> 100 µM

# Test system: MOLT-4 leukemia
# Experiment: NCI anticancer screen, dose series, 48 h
row,SMILES,TGI
1,C=CC[C@@]1(OC(C)=O)C(=O)C(=O)OC1C1COC(C)(C)O1 (stereo partly drawn),32.6 µM
2,N#CC1=C(N)OC2=C(CCCc3ccccc32)C1c1ccc([N+](=O)[O-])cc1 (stereo not drawn),1.64 µM
3,O=C(Nc1sccc1S(=O)(=O)c1ccc(Cl)cc1)c1ccc(Cl)cc1,> 100 µM

# Test system: BT-549 breast
# Experiment: NCI anticancer screen, dose series, 48 h
row,SMILES,TGI
1,C=CC[C@@]1(OC(C)=O)C(=O)C(=O)OC1C1COC(C)(C)O1 (stereo partly drawn),40 µM
2,N#CC1=C(N)OC2=C(CCCc3ccccc32)C1c1ccc([N+](=O)[O-])cc1 (stereo not drawn),23.9 µM
3,O=C(Nc1sccc1S(=O)(=O)c1ccc(Cl)cc1)c1ccc(Cl)cc1,> 100 µM

# Test system: NCI-H522 lung
# Experiment: NCI anticancer screen, dose series, 48 h
row,SMILES,TGI
1,C=CC[C@@]1(OC(C)=O)C(=O)C(=O)OC1C1COC(C)(C)O1 (stereo partly drawn),19.6 µM
2,N#CC1=C(N)OC2=C(CCCc3ccccc32)C1c1ccc([N+](=O)[O-])cc1 (stereo not drawn),24.2 µM
3,O=C(Nc1sccc1S(=O)(=O)c1ccc(Cl)cc1)c1ccc(Cl)cc1,> 100 µM

# Test system: MDA-MB-231 breast
# Experiment: NCI anticancer screen, dose series, 48 h
row,SMILES,TGI
1,C=CC[C@@]1(OC(C)=O)C(=O)C(=O)OC1C1COC(C)(C)O1 (stereo partly drawn),30.9 µM
2,N#CC1=C(N)OC2=C(CCCc3ccccc32)C1c1ccc([N+](=O)[O-])cc1 (stereo not drawn),> 100 µM
3,O=C(Nc1sccc1S(=O)(=O)c1ccc(Cl)cc1)c1ccc(Cl)cc1,> 100 µM

# Test system: LOX IMVI melanoma
# Experiment: NCI anticancer screen, dose series, 48 h
row,SMILES,TGI
1,C=CC[C@@]1(OC(C)=O)C(=O)C(=O)OC1C1COC(C)(C)O1 (stereo partly drawn),20 µM
2,N#CC1=C(N)OC2=C(CCCc3ccccc32)C1c1ccc([N+](=O)[O-])cc1 (stereo not drawn),41.1 µM
3,O=C(Nc1sccc1S(=O)(=O)c1ccc(Cl)cc1)c1ccc(Cl)cc1,> 100 µM

# Test system: SK-MEL-2 melanoma
# Experiment: NCI anticancer screen, dose series, 48 h
row,SMILES,TGI
1,C=CC[C@@]1(OC(C)=O)C(=O)C(=O)OC1C1COC(C)(C)O1 (stereo partly drawn),43.5 µM
